Measured values from BindingDB's records for doi:10.1038/sj.bjp.0702632 (Roche Bioscience, 1999).

Assays:
[1] = biological target: T1, 5-hydroxytryptamine receptor 3A (Homo sapiens, UniProt P46098)
T1 sequence (P46098 whole entry): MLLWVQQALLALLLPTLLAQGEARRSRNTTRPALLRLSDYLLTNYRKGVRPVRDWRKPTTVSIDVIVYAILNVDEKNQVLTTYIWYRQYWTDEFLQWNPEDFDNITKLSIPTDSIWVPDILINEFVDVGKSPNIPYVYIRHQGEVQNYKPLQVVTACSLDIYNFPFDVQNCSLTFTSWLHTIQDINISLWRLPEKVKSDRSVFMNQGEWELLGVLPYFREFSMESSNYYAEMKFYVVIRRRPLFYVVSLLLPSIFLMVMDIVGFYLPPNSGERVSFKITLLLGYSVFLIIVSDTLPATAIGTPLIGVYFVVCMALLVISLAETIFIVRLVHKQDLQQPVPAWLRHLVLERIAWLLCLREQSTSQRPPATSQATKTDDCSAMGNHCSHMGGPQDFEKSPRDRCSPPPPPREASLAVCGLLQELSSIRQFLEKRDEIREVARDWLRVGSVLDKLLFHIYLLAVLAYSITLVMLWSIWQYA

[2] = biological target: 5-hydroxytryptamine receptor 5A (Homo sapiens, UniProt P47898)
[3] = biological target: 5-hydroxytryptamine receptor 2B (Homo sapiens, UniProt P41595)
[4] = biological target: 5-hydroxytryptamine receptor 2A (Homo sapiens, UniProt P28223)
[5] = biological target: 5-hydroxytryptamine receptor 6 (Homo sapiens, UniProt P50406)
[6] = biological target: T2, 5-hydroxytryptamine receptor 2C (Homo sapiens, UniProt P28335)
T2 sequence (P28335 whole entry): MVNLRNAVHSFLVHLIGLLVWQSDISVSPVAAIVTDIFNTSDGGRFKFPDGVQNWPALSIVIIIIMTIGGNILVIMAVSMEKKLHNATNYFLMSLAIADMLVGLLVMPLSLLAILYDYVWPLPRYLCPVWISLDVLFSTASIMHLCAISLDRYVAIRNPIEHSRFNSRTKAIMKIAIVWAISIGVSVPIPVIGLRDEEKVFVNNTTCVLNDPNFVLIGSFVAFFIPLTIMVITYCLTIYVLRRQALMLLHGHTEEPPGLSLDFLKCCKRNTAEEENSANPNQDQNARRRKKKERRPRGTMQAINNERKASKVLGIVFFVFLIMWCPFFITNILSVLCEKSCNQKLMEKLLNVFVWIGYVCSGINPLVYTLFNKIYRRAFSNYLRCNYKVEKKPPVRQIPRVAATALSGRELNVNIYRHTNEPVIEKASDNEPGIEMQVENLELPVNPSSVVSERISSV

Chain of 5-hydroxytryptamine receptor 2B (P41595 whole entry): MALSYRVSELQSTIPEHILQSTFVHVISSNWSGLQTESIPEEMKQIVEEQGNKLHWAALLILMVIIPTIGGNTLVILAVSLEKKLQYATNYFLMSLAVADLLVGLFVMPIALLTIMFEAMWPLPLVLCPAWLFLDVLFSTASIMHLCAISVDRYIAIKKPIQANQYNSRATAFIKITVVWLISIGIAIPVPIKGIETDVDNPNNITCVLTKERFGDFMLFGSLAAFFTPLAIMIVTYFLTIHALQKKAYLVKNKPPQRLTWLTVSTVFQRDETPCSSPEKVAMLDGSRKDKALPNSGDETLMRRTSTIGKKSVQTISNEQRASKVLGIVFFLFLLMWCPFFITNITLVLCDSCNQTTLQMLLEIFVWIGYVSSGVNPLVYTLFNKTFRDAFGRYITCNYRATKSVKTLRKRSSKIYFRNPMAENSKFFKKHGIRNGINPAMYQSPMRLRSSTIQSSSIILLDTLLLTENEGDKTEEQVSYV
Chain of 5-hydroxytryptamine receptor 2A (P28223 whole entry): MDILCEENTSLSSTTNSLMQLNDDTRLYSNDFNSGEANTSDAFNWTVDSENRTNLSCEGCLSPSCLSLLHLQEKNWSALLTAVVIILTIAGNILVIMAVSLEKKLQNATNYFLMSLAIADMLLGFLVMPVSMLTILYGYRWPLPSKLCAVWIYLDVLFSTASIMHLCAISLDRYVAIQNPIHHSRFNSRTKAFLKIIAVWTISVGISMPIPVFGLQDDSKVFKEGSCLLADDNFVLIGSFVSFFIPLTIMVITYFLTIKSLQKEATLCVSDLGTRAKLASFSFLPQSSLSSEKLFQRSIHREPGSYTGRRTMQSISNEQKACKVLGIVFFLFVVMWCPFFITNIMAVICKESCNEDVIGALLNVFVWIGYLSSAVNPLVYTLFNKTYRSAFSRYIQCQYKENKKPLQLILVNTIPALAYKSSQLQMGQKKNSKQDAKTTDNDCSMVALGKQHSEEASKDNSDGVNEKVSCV
Chain of 5-hydroxytryptamine receptor 6 (P50406 whole entry): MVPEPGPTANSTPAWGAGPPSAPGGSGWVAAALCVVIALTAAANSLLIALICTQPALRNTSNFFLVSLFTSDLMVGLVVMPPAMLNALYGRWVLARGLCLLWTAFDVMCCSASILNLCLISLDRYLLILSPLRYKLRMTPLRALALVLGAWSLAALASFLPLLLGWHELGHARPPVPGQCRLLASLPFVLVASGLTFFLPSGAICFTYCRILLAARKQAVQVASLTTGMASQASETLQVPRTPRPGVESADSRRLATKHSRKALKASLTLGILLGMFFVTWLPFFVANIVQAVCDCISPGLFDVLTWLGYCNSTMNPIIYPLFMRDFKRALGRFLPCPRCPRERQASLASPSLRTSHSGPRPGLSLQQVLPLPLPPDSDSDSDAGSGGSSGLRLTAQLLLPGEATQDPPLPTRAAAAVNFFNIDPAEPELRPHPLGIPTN
Chain of 5-hydroxytryptamine receptor 5A (P47898 whole entry): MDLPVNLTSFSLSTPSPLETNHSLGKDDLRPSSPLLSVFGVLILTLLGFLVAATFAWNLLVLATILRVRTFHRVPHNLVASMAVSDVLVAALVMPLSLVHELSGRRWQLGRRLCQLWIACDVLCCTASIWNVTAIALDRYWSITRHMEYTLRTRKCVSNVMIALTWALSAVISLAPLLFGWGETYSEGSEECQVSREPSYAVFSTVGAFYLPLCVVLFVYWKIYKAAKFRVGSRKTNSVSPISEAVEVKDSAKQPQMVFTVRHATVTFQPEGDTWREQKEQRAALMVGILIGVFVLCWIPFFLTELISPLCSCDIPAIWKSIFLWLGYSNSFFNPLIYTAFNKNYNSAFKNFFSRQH

Row | SMILES | Ki [1] | Ki [2] | Ki [3] | Ki [4] | Ki [5] | Ki [6]
1 | CC(C)c1cc(-c2ccc(F)c3ccccc23)nc(N)n1 [RS-127445] | 1 µM | 1 µM | 0.00032 µM | 0.501 µM | 1 µM | 0.398 µM
2 | COc1ccc(CC2NCCc3c2[nH]c2ccccc32)cc1OC (stereo not drawn) [LY-23728] |  |  | 0.001 µM |  |  | 
3 | Cc1nc2sccn2c(=O)c1CCN1CCC(=C(c2ccc(F)cc2)c2ccc(F)cc2)CC1 |  |  | 0.001 µM |  |  | 
